According to patent US6489362B1, “Carnitine supplemented diet to prevent or alleviate ascites in broiler type poultry” (The Board of Regents for Oklahoma State University, priority 1999, dated 2002):

Columns and labels:
[1] = system: Male Cobb-500 broiler chicks; test: Carnitine supplemented basal diets fed to broiler chicks in respiratory chambers to 14 days of age; type: in vivo, broiler type chickens; settings: carnitine 200 ppm in basal diet; for Right ventricular weight (RV) / Ascites heart ratio (AHR), ratio of right ventricular mass to heart weight: 14 days of age; for Right ventricular weight (RV): control 0 ppm 0.21 ± 0.005; for Ascites heart ratio (AHR), ratio of right ventricular mass to heart weight: control 0 ppm 11.45 ± 0.24; for Hematocrit HCT: blood at week 2, control 0 ppm 36.11 ± 0.26
Method: (§1) Materials and Methods: Male Cobb-500 broiler chicks (obtained from Cobb Vantress of Siloam Springs, Ark.) were used. The chicks were divided into 24 groups of […] chicks and randomly assigned to 60 open circuit respiratory chambers in three separate rooms. The chambers were housed in 3 thermostatically controlled rooms with 24 hour fluorescent light. Two levels of carnitine (0,200 ppm) were added to the basal diets (Table 1) and examined at two oxygen levels (17 and 20.6%).
(§2) Feed and drinking water were provided for ad-libitum consumption. Chamber temperature was maintained at 30° C. the first 5 days of age and at 27.8° C. thereafter. Chambers were checked twice daily for bird mortality. Body weights of each chick were obtained on day 0, 7 and 14. Feed consumption was determined on a chamber basis at the end of 1 and 2 weeks and feed efficiency calculated. Oxygen consumption and CO2 production was recorded continuously on all chambers. Five birds at the start of the experiment were sacrificed for determination of initial composition. At the end of the experiment (Week 2) blood samples were taken from the wing vain of all birds for hematocrit determination. Heart weight and right ventricular mass of each bird were measured and the carcass saved for determination of lean and fat tissue gain using a Hologic densitometer.
Breathing Air Supply and Analysis: Compressed dried air (7% relative humidity (RH), 20.6% O2) was delivered to chicks in the chamber via polyethylene tubes. It was necessary to provide low RH air to the chick chamber in order to hold the chamber at RH below 75%. The concentration of O2 and CO2 in air exiting each bird's chamber was monitored each day using Ametek oxygen (accuracy±0.02%) and carbon dioxide (accuracy±.03%) analyzers, respectively.
Statistical Analysis: Data were analyzed using the General Linear Model procedure of SAS (SAS, 1985). When a significant F statistic was noted by ANOVA, treatment means were compared using least square analysis variance.

broilers = test: Further examples: hematocrit of broilers fed carnitine supplemented diets; type: in vivo, broiler type chickens; settings: for Hematocrit HCT: control 0: 33.40
Method: as §1, with “Two levels of carnitine (0,200 ppm) were added to the basal diets (Table 1) and examined at two oxygen levels (17 and 20.6%).” left out
as §2

growing broilers = settings: cited from earlier work

## C[N+](C)(C)CC(O)CC(=O)[O-] (stereo not drawn) [Carnitine, 3-hydroxy-4-N-trimethylaminobutyric acid]
[1]
  Right ventricular weight (RV): 0.20 ± 0.006 g
  Ascites heart ratio (AHR), ratio of right ventricular mass to heart weight: 10.57 ± 0.26%
  Hematocrit HCT: 35.41 ± 0.24%
[1]; listed as carnitine
  Right ventricular weight (RV): significantly decreased
  Ascites heart ratio (AHR), ratio of right ventricular mass to heart weight: significantly decreased
  Hematocrit HCT: significantly decreased
[1]; broilers to 14 days of age
  Body weight gain (Gain): 265 ± 3.1 g/b
  Gain:feed ratio: 0.76 ± 0.0
broilers; carnitine level 12.5 (ppm) in diet
  Hematocrit HCT: 32.11%
broilers; carnitine level 50 (ppm) in diet
  Hematocrit HCT: 31.99%
broilers; carnitine level 100 (ppm) in diet
  Hematocrit HCT: 30.60%
broilers; diets at 12.5, 50 and 100 ppm carnitine
  Hematocrit values, change versus unsupplemented diet: beneficial and significant lowering
Growing broilers; carnitine in poultry diet, growing broilers (Cartwright 1986)
  Effect on feed intake, body and abdominal fat weight, carcass or liver lipid levels: no beneficial effect
Growing broilers; dietary carnitine (Smith et al. 1992)
  Ethanol metabolism in broilers: retard ethanol metabolism
Growing broilers; dietary carnitine (U.S. Pat. No. 5,362,753)
  Hatchability of eggs: increase the hatchability of eggs
